Each structure is given as a SMILES string.

Common to all, as to assay type: biochemical
Assay [1] deals with rabbit skeletal myosin-2 heavy meromyosin (HMM). The assay can be described thus: Actin-activated ATPase activity, rabbit skeletal myosin-2 HMM. The following applies: 0 to 150 μM PBP, hyperbolic fit; read-out: Ki, half-maximal inhibition of actin-activated ATPase activity. The procedure:
(§1) Based on the structure of the myosin-2 motor domain with bound PBP, we performed molecular modeling studies to elucidate the specificity of PBP-binding to myosins from different classes. […] To test the predictions from the modeling studies, we determined actin-activated ATPase activities in the presence of 0 to 150 μM PBP with rabbit skeletal myosin-2 heavy meromyosin (HMM), myosin-5a isolated from chicken brain, and recombinant Dictyostelium myosin class-1, 2 and 5 motor-domain constructs (FIG. 9a). […] The concentrations of PBP required for half-maximal inhibition of the different myosin motors was calculated from fitting the data to hyperbolae. […] To determine the extend to which PBP impairs the coupling between the actin- and nucleotide-binding sites of myosin, we measured the ATP turn-over rates of Dictyostelium myosin-2 and myosin-5b motor domain constructs over the range from 0 to 50 μM F-actin in the absence and presence of 25 μM PBP.
(§2) Protein preparation. Rabbit fast skeletal muscle heavy meromyosin (HMM) was prepared as described by Kron and Spudich^9. […]
(§3) Steady-state kinetics. Basal and actin-activated Mg^2+-ATPase activities were measured with the NADH-coupled assay^19 in a buffer containing 25 mM HEPES, 25 mM KCl, and 4 mM MgCl2, 0.5 mM DTT at pH 7.0 in the presence of 1 mM ATP at 25° C. […]

Assay [2] has as its target T1, M761 (myosin-2 motor domain from D. discoideum) (Dictyostelium discoideum, UniProt P08799, C312Y/S249N).
T1 construct: amino acids 3 to 761 of myosin-2 from D. discoideum; His-tag (N); made in house; host or cells: D. discoideum AX3-ORF+ cells
Put plainly: Quench-flow ATP hydrolysis (Pi-burst) with M761. The following applies: 50 μM PBP. The procedure:
Effect of Pentabromopseudilin on ATP binding kinetics to DdMyosin-5b and acto-DdMyosin-5b. (FIG. 10a) Fluorescence transients obtained upon mixing 1 μM DdMyosin-5b with 10 μM mantATP in the absence and presence of 5 μM, 25 μM, 50 μM and 100 μM PBP. Mant-fluorescence was excited at 365 nm and detected after passing through a KV 389 nm cut-off filter. The fluorescent signal of mantATP binding to DdMyosin-5b in the absence of PBP follows a single exponential function (upper curve). The presence of increasing concentrations of PBP lead to reduced amplitudes of the fluorescent signals that are best fit by double exponentials. (FIG. 10b) Plot of the relative amplitudes of mantATP binding to Dd Myosin-5b at different PBP concentrations. […] (FIG. 10c) Fluorescence transients of the ATP induced dissociation of pyrene-acto-DdMyosin-5b in the absence (black curve) and presence (grey curve) of 50 μM PBP. (FIG. 10d) Quench-flow experiments of the ATP hydrolysis reaction upon mixing 5 μM M761 with 25 μM ATP in the absence (solid squares) and presence (open circles) of 50 μM PBP. The Pi-burst (kburst=7.8±0.2 sin the absence and 2.5±0.1 s^−1 in the presence of PBP) was followed by a linear steady-state phase. […]
Quench-flow Experiments. […] The relative amounts of […] and ATP were quantified using a phosphorimager (Fujix BAS1000, Fuji), the software MacBAS V 2.4, TINA V 2.09f, and Origin 7.0.

For a further assay, the target named is T2, Dictyostelium myosin-2 (Dictyostelium discoideum, UniProt P08799, C312Y/S249N).
T2 construct: comprising amino acids 1-698, 1-765, and 1-839 respectively; made in house
T2 sequence (P08799 1-765 S249N/C312Y): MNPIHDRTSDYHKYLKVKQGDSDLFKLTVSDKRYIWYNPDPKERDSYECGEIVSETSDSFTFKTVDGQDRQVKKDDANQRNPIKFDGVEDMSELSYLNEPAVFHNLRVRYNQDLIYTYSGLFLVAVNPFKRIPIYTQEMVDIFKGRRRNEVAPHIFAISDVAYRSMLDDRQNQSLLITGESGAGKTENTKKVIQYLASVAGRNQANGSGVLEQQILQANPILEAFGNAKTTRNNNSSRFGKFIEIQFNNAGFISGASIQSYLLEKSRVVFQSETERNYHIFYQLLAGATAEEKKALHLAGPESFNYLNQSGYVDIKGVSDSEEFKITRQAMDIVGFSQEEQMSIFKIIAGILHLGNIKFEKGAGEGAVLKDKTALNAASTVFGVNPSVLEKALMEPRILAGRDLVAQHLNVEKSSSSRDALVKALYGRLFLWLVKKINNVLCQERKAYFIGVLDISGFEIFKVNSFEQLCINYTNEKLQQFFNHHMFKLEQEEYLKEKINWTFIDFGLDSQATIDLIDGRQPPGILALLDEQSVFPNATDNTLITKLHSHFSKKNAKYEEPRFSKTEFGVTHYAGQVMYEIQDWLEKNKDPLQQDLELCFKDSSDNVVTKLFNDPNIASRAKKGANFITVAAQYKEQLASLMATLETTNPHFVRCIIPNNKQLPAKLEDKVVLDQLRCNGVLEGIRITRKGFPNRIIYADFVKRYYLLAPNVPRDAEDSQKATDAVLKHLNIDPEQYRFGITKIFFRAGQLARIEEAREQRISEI
The assay can be described thus: Actin-activated ATPase activity (NADH-coupled assay), Dictyostelium myosin-2. The procedure: as §1
Values for the rate of maximum ATP turnover (kcat), the concentration of F-actin at which half-maximal activation is achieved (Kapp), and the apparent second order rate constant for actin binding (kcat/Kapp) were estimated from a fit of the data to a hyperbolic function. kcat/Kapp is a direct measure of the coupling efficiency between actin and nucleotide binding and can be determined from the initial slope at F-actin concentrations much smaller than Kapp. […] ATP turn-over rates of Dictyostelium myosin-2 (◯) and Dictyostelium myosin-5b (▪) at increasing F-actin concentrations in the absence (filled symbols) and presence (open symbols) of 25 μM pentabromopseudilin (FIG. 9b):
Protein preparation. Rabbit fast skeletal muscle heavy meromyosin (HMM) was prepared as described by Kron and Spudich^9. Motor domain constructs of myosin-1E, myosin-2, and myosin-5b from Dictyostelium discoideum comprising amino acids 1-698, 1-765, and 1-839 respectively, were prepared as described previouslyl^10-12. Myosin-5a heavy meromyosin from chicken brain was provided by Dr. T. Scholz (Hannover Medical School, Germany) and F-actin was prepared as described by Lehrer and Kerwar^13.
Steady-state kinetics. Basal and actin-activated Mg^2+-ATPase activities were measured with the NADH-coupled assay^19 in a buffer containing 25 mM HEPES, 25 mM KCl, and 4 mM MgCl2, 0.5 mM DTT at pH 7.0 in the presence of 1 mM ATP at 25° C. PBP was added to the reaction mixture in the absence of nucleotide and incubated for 20 minutes before the reaction was started by the addition of ATP. NADH oxidation was followed using the change in absorption at 340 nm in a Beckman DU-800 spectrophotometer.

In another assay the test system is myosin-2. The conditions noted are these: 100 μM PBP.
The target in the next assay is chicken myosin-5a (Gallus gallus, UniProt Q02440). Put plainly: Actin-activated ATPase activity (NADH-coupled assay), chicken myosin-5a. The procedure:
as §1, §2, §3

T1 sequence (P08799 3-761 S249N/C312Y): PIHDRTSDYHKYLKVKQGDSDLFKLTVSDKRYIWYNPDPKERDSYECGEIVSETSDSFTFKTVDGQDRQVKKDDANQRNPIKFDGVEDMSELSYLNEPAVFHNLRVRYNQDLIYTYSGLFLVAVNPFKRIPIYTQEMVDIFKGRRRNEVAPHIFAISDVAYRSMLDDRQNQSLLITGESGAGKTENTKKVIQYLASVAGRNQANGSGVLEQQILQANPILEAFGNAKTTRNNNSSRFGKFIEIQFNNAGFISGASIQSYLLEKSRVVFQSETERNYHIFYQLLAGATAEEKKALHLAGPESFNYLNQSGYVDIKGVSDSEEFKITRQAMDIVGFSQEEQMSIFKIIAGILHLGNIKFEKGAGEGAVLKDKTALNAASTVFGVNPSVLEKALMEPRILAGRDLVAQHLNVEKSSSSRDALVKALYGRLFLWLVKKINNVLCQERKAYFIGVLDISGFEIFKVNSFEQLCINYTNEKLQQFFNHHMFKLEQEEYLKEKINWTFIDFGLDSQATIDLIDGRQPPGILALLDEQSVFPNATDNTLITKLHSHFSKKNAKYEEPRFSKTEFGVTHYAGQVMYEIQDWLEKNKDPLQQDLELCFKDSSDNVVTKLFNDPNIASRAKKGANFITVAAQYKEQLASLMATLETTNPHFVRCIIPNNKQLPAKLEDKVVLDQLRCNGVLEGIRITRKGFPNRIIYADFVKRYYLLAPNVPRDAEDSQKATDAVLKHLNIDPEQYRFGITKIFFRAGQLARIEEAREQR
chicken myosin-5a, sequence (Q02440 1-764): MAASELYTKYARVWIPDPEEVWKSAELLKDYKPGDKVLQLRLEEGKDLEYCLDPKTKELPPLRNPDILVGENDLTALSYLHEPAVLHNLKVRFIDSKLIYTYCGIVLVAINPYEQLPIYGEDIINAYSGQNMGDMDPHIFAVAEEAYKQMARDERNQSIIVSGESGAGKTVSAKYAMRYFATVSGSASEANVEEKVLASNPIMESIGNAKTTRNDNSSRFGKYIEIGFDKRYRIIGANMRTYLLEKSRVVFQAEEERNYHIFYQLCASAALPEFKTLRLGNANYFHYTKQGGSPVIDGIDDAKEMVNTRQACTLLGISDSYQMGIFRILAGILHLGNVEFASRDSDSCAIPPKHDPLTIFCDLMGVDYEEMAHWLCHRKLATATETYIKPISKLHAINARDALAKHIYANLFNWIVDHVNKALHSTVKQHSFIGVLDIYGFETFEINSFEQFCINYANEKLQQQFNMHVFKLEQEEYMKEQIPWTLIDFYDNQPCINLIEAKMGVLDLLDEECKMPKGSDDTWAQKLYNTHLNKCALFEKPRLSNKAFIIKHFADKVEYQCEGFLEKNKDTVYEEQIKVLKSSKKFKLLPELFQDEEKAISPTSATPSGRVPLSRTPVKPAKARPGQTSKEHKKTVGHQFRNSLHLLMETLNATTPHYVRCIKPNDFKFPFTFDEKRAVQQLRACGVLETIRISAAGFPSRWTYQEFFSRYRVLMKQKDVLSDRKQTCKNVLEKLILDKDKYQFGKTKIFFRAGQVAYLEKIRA

Broadly, the Ki is the equilibrium dissociation constant of an inhibitor or competing ligand from its target. Take `Oc1c(Br)cc(Br)cc1-c1[nH]c(Br)c(Br)c1Br` [KIN-43]: the Ki in assay [1] stood at 23 µM; at Dictyostelium myosin-2, 24 µM; at chicken myosin-5a it was 1190 nM. Moreover, the Pi-burst rate kburst in assay [2] (5 μM M761, 25 μM ATP) was determined as 2.5 ± 0.1 s⁻¹. Further, the “amplitude of the burst” value in assay [2] (0.95 in the absence) is reported as 0.5. The “fold reduction in coupling (kcat/Kapp)” value at Dictyostelium myosin-2 (25 μM PBP) is given as 3.7 fold. For the same compound, the “kcat/Kapp (apparent second order rate constant for actin binding)” value on Dictyostelium myosin-2 (25 μM PBP, 0 to 50 μM F-actin, 0.037 without) turned out to be 0.010 µM⁻¹ s⁻¹. Further, the “ATPase activity at 30 μM F-actin in the presence of inhibitor” value at Dictyostelium myosin-2 (>100 μM PBP, 0.7 s^−1 without) amounted to 0.02 s⁻¹; at chicken myosin-5a it was 0.34 s⁻¹. The “fold reduction in the average gliding velocity” value in the assay on myosin-2 is 2-to-3 fold.

The record behind these values is US20110105554A1, “MEANS FOR TREATING MYOSIN-RELATED DISEASES” (KINARIS BIOMEDICALS GMBH, priority 2007, published 2011).
